Measurements: ChEMBL document CHEMBL5321275, “Discovery, Optimization, and Evaluation of Novel N-(Benzimidazol-5-yl)-1,3,4-thiadiazol-2-amine Analogues as Potent STAT3 Inhibitors for Cancer Treatment” (J Med Chem, 2023)
The source made the active and inactive calls. No cut-off for these calls is given here.

Legend:
[1] = tested on: DU-145; assay: Induction of apoptosis in human DU-145 cells assessed as early apoptotic cells at 1 uM measured after 48 hrs by annexin V-FITC and PI staining based flow cytometry analysis (reference value: 2.5%); assay type: functional
[2] = Inhibition of IL-6/JAK/STAT3 signalling pathway in HEK-Blue IL-6 cells incubated for 16 hrs by QUANTI-blue assay; assay type: cell-based; settings: Homo sapiens, HEK-Blue IL-6, 16 h
[3] = tested on: DU-145; assay: Antiproliferative activity against human DU-145 cells assessed as inhibition of cell growth at 10 uM measured after 96 hrs by MTT assay relative to control; assay type: functional
[4] = tested on: DU-145; assay: Antiproliferative activity against human DU-145 cells assessed as inhibition of cell growth measured after 96 hrs by MTT assay; assay type: functional, cell-based; settings: DU-145, 96 h
[5] = tested on: MDA-MB-231; assay: Antiproliferative activity against human MDA-MB-231 cells assessed as inhibition of cell growth measured after 96 hrs by MTT assay; assay type: functional, cell-based; settings: MDA-MB-231, 96 h
[6] = tested on: PANC-1; assay: Antiproliferative activity against human PANC-1 cells assessed as inhibition of cell growth measured after 96 hrs by MTT assay; assay type: functional, cell-based; settings: PANC-1, 96 h
[7] = tested on: HepG2; assay: Antiproliferative activity against human HepG2 cells assessed as inhibition of cell growth measured after 96 hrs by MTT assay; assay type: functional, cell-based; settings: HepG2, 96 h
[8] = Antiproliferative activity against human PBMC cells assessed as inhibition of cell growth measured after 96 hrs by MTT assay; assay type: functional, cell-based
[9] = Metabolic stability in mouse liver microsomes assessed as intrinsic clearance in presence of NADPH/UDPGA; assay type: ADME, Microsome; settings: read-out: CLH
[10] = biological target: T1, Signal transducer and activator of transcription 5A (Homo sapiens) (UniProt P42229); assay: Inhibition of STAT5 phosphorylation in human DU-145 cells at 10 uM measured after 24 hrs by Western blot analysis; assay type: cell-based
T1 sequence (whole entry): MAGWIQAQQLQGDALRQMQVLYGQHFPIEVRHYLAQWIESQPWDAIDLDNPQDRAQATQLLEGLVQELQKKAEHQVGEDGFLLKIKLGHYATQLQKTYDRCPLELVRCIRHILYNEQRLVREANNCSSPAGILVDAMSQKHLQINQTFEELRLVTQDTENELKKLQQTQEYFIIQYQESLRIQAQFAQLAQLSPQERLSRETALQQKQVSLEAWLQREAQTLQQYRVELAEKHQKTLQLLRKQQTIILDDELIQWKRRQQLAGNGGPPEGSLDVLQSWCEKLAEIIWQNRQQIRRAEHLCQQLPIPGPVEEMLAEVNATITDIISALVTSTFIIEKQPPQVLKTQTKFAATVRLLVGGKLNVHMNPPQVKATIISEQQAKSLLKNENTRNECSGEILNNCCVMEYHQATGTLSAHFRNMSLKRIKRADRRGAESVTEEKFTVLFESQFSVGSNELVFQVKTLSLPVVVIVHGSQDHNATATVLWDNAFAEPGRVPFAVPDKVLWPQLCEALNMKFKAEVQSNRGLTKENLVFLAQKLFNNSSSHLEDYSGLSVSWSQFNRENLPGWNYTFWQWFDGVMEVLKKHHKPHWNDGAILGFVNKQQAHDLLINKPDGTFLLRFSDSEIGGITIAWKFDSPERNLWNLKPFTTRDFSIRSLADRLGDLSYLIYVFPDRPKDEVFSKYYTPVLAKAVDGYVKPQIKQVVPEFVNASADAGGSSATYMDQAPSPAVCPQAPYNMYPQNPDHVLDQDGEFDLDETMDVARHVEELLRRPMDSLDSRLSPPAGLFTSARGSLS

[11] = biological target: Signal transducer and activator of transcription 3 (Homo sapiens, UniProt P40763); assay: Binding affinity to STAT3 (unknown origin) assessed as conformational change in STAT3 protein measured after 1 hr by circular dichroism method
[12] = tested on: DU-145; assay: Induction of cell cycle arrest in human DU-145 cells assessed as accumulation of cells at G0/G1 phase measured after 24 hrs by PI staining based flow cytometry analysis; assay type: functional; settings: dose <= 10.0 µM
[13] = tested on: DU-145; assay: Induction of apoptosis in human DU-145 cells assessed as early apoptotic cells at 5 uM measured after 48 hrs by annexin V-FITC and PI staining based flow cytometry analysis (reference value: 2.5%); assay type: functional
[14] = tested on: DU-145; assay: Induction of apoptosis in human DU-145 cells assessed as early apoptotic cells at 10 uM measured after 48 hrs by annexin V-FITC and PI staining based flow cytometry analysis (reference value: 2.5%); assay type: functional
[15] = tested on: MDA-MB-231; assay: Induction of apoptosis in human MDA-MB-231 cells assessed as early apoptotic cells at 5 uM measured after 48 hrs by annexin V-FITC and PI staining based flow cytometry analysis (reference value: 6.7%); assay type: functional
[16] = tested on: MDA-MB-231; assay: Induction of apoptosis in human MDA-MB-231 cells assessed as late apoptotic cells at 5 uM measured after 48 hrs by annexin V-FITC and PI staining based flow cytometry analysis (reference value: 3.1%); assay type: functional
[17] = tested on: MDA-MB-231; assay: Induction of apoptosis in human MDA-MB-231 cells assessed as late apoptotic cells at 10 uM measured after 48 hrs by annexin V-FITC and PI staining based flow cytometry analysis (reference value: 3.1%); assay type: functional
[18] = tested on: MDA-MB-231; assay: Induction of apoptosis in human MDA-MB-231 cells measured after 48 hrs by annexin V-FITC and PI staining based flow cytometry analysis; assay type: functional, cell-based; settings: dose <= 10.0 µM
[19] = tested on: DU-145; assay: Antitumor activity against human DU-145 cells xenografted in Balb/c nude mouse model assessed as tumor growth inhibition at 50 mg/kg, ip administered once daily for 16 days by vernier caliper method relative to control; assay type: functional; settings: DU-145, 384 h, time 16 day, read-out: TGI
[20] = Toxicity in Balb/c mouse assessed as drug tolerance at 50 mg/kg, ip administered once daily for 16 days; assay type: organism-based; settings: in vivo, 384 h, time 16 day
[21] = Toxicity in Balb/c mouse assessed as effect on body weight loss at 50 mg/kg, ip administered once daily for 16 days; assay type: organism-based; settings: in vivo, 384 h, time 16 day
[22] = Toxicity in Balb/c mouse assessed as effect on liver at 50 mg/kg by hematoxylin and eosin staining based histopathological analysis; assay type: organism-based; settings: in vivo
[23] = Drug concentration in ICR mouse plasma at 5 mg/kg, iv measured at 2 mins; assay type: ADME, organism-based
[24] = AUC (0 to infinity) in ICR mouse at 50 mg/kg, po measured upto 96 hrs by HPLC-MS/MS analysis; assay type: ADME, organism-based; set-up: time < 96 hrs, dose 50 mg/kg, route po; settings: in vivo
[25] = MRT (0 to infinity) in ICR mouse at 50 mg/kg, po measured upto 96 hrs by HPLC-MS/MS analysis; assay type: ADME, organism-based; settings: in vivo
[26] = Cmax in ICR mouse at 50 mg/kg, po measured upto 96 hrs by HPLC-MS/MS analysis; assay type: ADME, organism-based; set-up: time < 96 hrs, dose 50 mg/kg, route po; settings: in vivo
[27] = MRT (0 to t) in ICR mouse at 5 mg/kg, iv measured upto 96 hrs by HPLC-MS/MS analysis; assay type: ADME, organism-based; settings: in vivo
[28] = MRT (0 to infinity) in ICR mouse at 5 mg/kg, iv measured upto 96 hrs by HPLC-MS/MS analysis; assay type: ADME, organism-based; settings: in vivo
[29] = Tmax in ICR mouse at 5 mg/kg, iv measured upto 96 hrs by HPLC-MS/MS analysis; assay type: ADME, organism-based; settings: in vivo

Sequence of Signal transducer and activator of transcription 3 (P40763 whole entry): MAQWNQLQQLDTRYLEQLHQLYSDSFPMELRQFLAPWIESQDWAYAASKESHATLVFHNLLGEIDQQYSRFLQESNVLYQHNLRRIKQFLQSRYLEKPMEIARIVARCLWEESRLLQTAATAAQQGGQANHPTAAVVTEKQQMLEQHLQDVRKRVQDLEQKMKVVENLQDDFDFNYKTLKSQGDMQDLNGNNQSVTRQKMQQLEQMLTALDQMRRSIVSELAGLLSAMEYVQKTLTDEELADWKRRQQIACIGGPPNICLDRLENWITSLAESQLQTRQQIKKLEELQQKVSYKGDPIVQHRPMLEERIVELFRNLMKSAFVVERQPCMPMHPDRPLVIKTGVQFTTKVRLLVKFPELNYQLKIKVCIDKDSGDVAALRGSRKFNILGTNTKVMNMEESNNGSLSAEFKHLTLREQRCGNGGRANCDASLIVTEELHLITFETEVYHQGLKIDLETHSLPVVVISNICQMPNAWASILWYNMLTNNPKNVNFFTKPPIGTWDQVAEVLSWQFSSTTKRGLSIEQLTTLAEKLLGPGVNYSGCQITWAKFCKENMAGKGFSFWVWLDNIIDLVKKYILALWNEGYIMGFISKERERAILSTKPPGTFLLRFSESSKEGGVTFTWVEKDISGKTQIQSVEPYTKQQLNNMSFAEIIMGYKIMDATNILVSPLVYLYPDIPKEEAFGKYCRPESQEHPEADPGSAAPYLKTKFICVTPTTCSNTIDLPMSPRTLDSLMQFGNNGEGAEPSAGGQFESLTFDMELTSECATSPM

Molecule `CN1CCN(c2cc3c(cc2Nc2nnc(-c4ccc(C(F)(F)F)cc4)s2)nc(-c2ccc(F)cc2)n3C2CC2)CC1` has an Activity [1] of 2.1%, an IC50 [2] of 650 nM and an inhibition at 10 µM [3] of 92.7%. For the same molecule, the IC50 [4] was 2970 nM, the IC50 [5] was 3260 nM and the IC50 [6] was 2430 nM. The IC50 [7] was 1450 nM, the IC50 [8] was 16300 nM and the microsomal CLint [9] was 3.68 µL/min/mg. The inhibition [10] was “inactive”, the Activity [11] was “Active” and the Activity [12] was “Dose-Dependent Effect”. It also gave an Activity [13] of 6.9%, an Activity [14] of 34% and an Activity [15] of 12.1%. For the same molecule, the Activity [16] was 10.7%, the Activity [17] was 20.1% and the Activity [18] was “Dose-Dependent Effect”. For the same molecule, the inhibition in vivo at 50 mg/kg [19] was 65.3%, the Activity [20] was “Non-Toxic” and the Activity [21] was “Non-Toxic”. The Activity [22] was “Non-Toxic”, the concentration at 2 min [23] was 549 ng/mL and the AUC(0-inf) [24] was 17800 ng·h/mL. It also gave an MRT inf [25] of 17.3 h, a Cmax [26] of 910 ng/mL and an MRT last at 96 h [27] of 14.9 h. For the same molecule, the MRT inf [28] was 15.3 h and the Tmax [29] was 3 min.
